Results as given in ChEMBL document CHEMBL1201862, “PubChem BioAssay data set” (2004).
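How tested: cells in 96-well plates exposed to compound for 48 hours at five concentrations. GI50: concentration for 50% inhibition of growth.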 The source made the active and inactive calls. Cut-off read from the data, not from the text of the source: active = GI50 up to about 1.1 µM and inactive = higher.

What was measured:
Assay in all cases: inhibition of tumour cell growth, NCI panel, 48 h
SF-539 = system: SF-539
RXF 393 = system: RXF 393
OVCAR-5 = system: OVCAR-5
SN12C = system: SN12C
UO-31 = system: UO-31
TK-10 = system: TK-10
SK-MEL-2 = system: SK-MEL-2
SF-268 = system: SF-268
Malme-3M = system: Malme-3M
CCRF-CEM = system: CCRF-CEM
COLO 205 = system: COLO 205
HCC 2998 = system: HCC 2998
SNB-75 = system: SNB-75
IGROV-1 = system: IGROV-1
NCI-H460 = system: NCI-H460
NCI-H23 = system: NCI-H23
NCI-H226 = system: NCI-H226
CAKI-1 = system: CAKI-1

Measured: GI50

CN1C2C=C(c3ccccc3)CC1CC2 (stereo unspecified)
inactive: SF-539 > 100 µM | RXF 393 > 100 µM | OVCAR-5 > 100 µM | SN12C > 100 µM | UO-31 > 100 µM | TK-10 > 100 µM | SK-MEL-2 > 100 µM | SF-268 > 100 µM | Malme-3M > 100 µM | CCRF-CEM > 100 µM | COLO 205 > 100 µM | HCC 2998 > 100 µM | SNB-75 56.1 µM | IGROV-1 > 100 µM | NCI-H460 > 100 µM | NCI-H23 > 100 µM

CC(=O)c1cccc(NCn2nnc3ccccc32)c1
inactive: NCI-H226 > 100 µM | SF-539 > 100 µM | RXF 393 > 100 µM | SN12C > 100 µM | UO-31 > 100 µM | TK-10 > 100 µM | SK-MEL-2 > 100 µM | SF-268 > 100 µM | Malme-3M > 100 µM | CCRF-CEM > 100 µM | COLO 205 > 100 µM | HCC 2998 > 100 µM | SNB-75 > 100 µM | IGROV-1 > 100 µM | NCI-H460 > 100 µM | NCI-H23 > 100 µM

O=C(c1ccccc1)N1CCc2c([nH]c3ccccc23)C1
inactive: NCI-H226 51.8 µM | SF-539 76.9 µM | OVCAR-5 > 100 µM | SN12C 34 µM | UO-31 22.5 µM | TK-10 44.3 µM | SK-MEL-2 27.1 µM | CAKI-1 28.4 µM | Malme-3M 35.8 µM | CCRF-CEM 44.6 µM | COLO 205 19.2 µM | HCC 2998 94.4 µM | SNB-75 66.8 µM | IGROV-1 52.2 µM | NCI-H460 41.7 µM | NCI-H23 33.4 µM

Cn1cnc([N+](=O)[O-])c1SC1=NCCS1
inactive: NCI-H226 > 100 µM | SF-539 > 100 µM | OVCAR-5 > 100 µM | SN12C > 100 µM | UO-31 74.6 µM | TK-10 > 100 µM | SK-MEL-2 47.4 µM | SF-268 > 100 µM | CAKI-1 > 100 µM | Malme-3M 22 µM | CCRF-CEM 28.2 µM | COLO 205 70 µM | HCC 2998 > 100 µM | SNB-75 > 100 µM | IGROV-1 > 100 µM | NCI-H460 > 100 µM | NCI-H23 81.1 µM

C[C@@]12CCCC(=O)N1[C@@H](CO)C(c1ccccc1)O2 (stereo partly specified)
inactive: SF-539 > 100 µM | RXF 393 > 100 µM | OVCAR-5 > 100 µM | SN12C > 100 µM | TK-10 > 100 µM | SK-MEL-2 > 100 µM | SF-268 > 100 µM | CAKI-1 > 100 µM | Malme-3M > 100 µM | COLO 205 > 100 µM | SNB-75 > 100 µM | IGROV-1 > 100 µM | NCI-H460 > 100 µM | NCI-H23 > 100 µM

CCOc1cccc2ccc[n+](CC)c12
inactive: NCI-H226 > 100 µM | SF-539 > 100 µM | RXF 393 > 100 µM | OVCAR-5 > 100 µM | SN12C 53.1 µM | UO-31 > 100 µM | TK-10 > 100 µM | SF-268 12.2 µM | Malme-3M > 100 µM | CCRF-CEM 55.8 µM | COLO 205 40.8 µM | HCC 2998 > 100 µM | SNB-75 > 100 µM | IGROV-1 > 100 µM | NCI-H460 75.7 µM | NCI-H23 15.9 µM

Cc1cc(=O)c2c(O)cc3c(c2o1)CC=C(COC1OC(COC2OC(CO)C(O)C(O)C2O)C(O)C(O)C1O)CO3 (stereo unspecified)
inactive: NCI-H226 > 100 µM | SF-539 > 100 µM | OVCAR-5 > 100 µM | SN12C > 100 µM | UO-31 > 100 µM | TK-10 > 100 µM | SK-MEL-2 > 100 µM | SF-268 > 100 µM | CAKI-1 > 100 µM | Malme-3M > 100 µM | CCRF-CEM > 100 µM | COLO 205 > 100 µM | HCC 2998 > 100 µM | SNB-75 > 100 µM | IGROV-1 > 100 µM | NCI-H460 > 100 µM | NCI-H23 > 100 µM

N#Cc1cn(-c2c3ccccc3nc3ccccc23)c(=O)[nH]c1=O
inactive: SF-539 2.51 µM | OVCAR-5 13.8 µM | UO-31 3.8 µM | TK-10 21.5 µM | SK-MEL-2 10.8 µM | SF-268 4.74 µM | CAKI-1 5.75 µM | Malme-3M 10.7 µM | CCRF-CEM 7.29 µM | COLO 205 5.43 µM | SNB-75 16.7 µM | IGROV-1 23.3 µM | NCI-H460 3.55 µM | NCI-H23 > 10 µM

COc1ccc2c3c1C(=O)CCC3CO2 (stereo unspecified)
inactive: SF-539 > 100 µM | OVCAR-5 > 100 µM | SN12C > 100 µM | UO-31 > 100 µM | TK-10 > 100 µM | SK-MEL-2 > 100 µM | SF-268 > 100 µM | CAKI-1 > 100 µM | Malme-3M > 100 µM | CCRF-CEM > 100 µM | COLO 205 > 100 µM | HCC 2998 > 100 µM | IGROV-1 > 100 µM | NCI-H460 > 100 µM | NCI-H23 > 100 µM

Cc1cc2c(=O)cc(-c3ccc(F)cc3)oc2c(C(=O)O)c1C
inactive: NCI-H226 > 100 µM | SF-539 > 100 µM | RXF 393 > 100 µM | OVCAR-5 > 100 µM | SN12C > 100 µM | UO-31 > 100 µM | TK-10 > 100 µM | SK-MEL-2 > 100 µM | SF-268 > 100 µM | CAKI-1 > 100 µM | Malme-3M > 100 µM | CCRF-CEM > 100 µM | COLO 205 > 100 µM | SNB-75 > 100 µM | IGROV-1 > 100 µM | NCI-H460 > 100 µM | NCI-H23 > 100 µM

CC1(C)CC2CC(CC(C)(C)C2=O)C1=O
inactive: SF-539 > 100 µM | RXF 393 > 100 µM | OVCAR-5 > 100 µM | SN12C > 100 µM | UO-31 > 100 µM | TK-10 > 100 µM | SK-MEL-2 > 100 µM | SF-268 > 100 µM | CAKI-1 > 100 µM | Malme-3M > 100 µM | CCRF-CEM > 100 µM | COLO 205 > 100 µM | HCC 2998 > 100 µM | SNB-75 > 100 µM | IGROV-1 > 100 µM | NCI-H460 > 100 µM | NCI-H23 > 100 µM

Cc1ccc(-c2nnc(-c3nn(-c4ccccc4)c4nc5ccccc5nc34)o2)cc1
inactive: NCI-H226 13.2 µM | SF-539 3.03 µM | RXF 393 6.05 µM | OVCAR-5 > 100 µM | SN12C 22.4 µM | UO-31 20.4 µM | TK-10 14 µM | SK-MEL-2 16 µM | SF-268 11.1 µM | CAKI-1 11.7 µM | CCRF-CEM 3.59 µM | COLO 205 47.2 µM | SNB-75 4.1 µM | IGROV-1 17.6 µM | NCI-H460 9.04 µM | NCI-H23 14 µM
